Series [1] has as its target Amyloid-beta precursor protein (Homo sapiens) (UniProt P05067). The series is described as follows: Inhibition of human amyloid beta (1 to 42) assessed as neuroprotective activity up to 2 uM of amyloid beta (1 to 42)-induced toxicity in rat PC12 cells by measuring reduction in cell viability at 100 uM incubated 15 mins prior to amyloid beta (1 to 42) addition measured after 48 hrs by MTT assay. The class given is cell-based.

Series [2] shares this target. The series is described as follows: Inhibition of human amyloid beta (1 to 42) aggregation assessed as loosely attached/thin fibrils at 100 uM after 48 hrs by transmission electron microscopic analysis.
Series [3] shares this target. The series is described as follows: Inhibition of human amyloid beta (1 to 42) assessed as neuroprotective activity at 2 uM of amyloid beta (1 to 42)-induced toxicity in rat PC12 cells by measuring reduction in cell viability at 10 to 50 uM incubated 15 mins prior to amyloid beta (1 to 42) addition measured after 48 hrs by MTT assay. The class given is cell-based.
The target is the same in series [4]. The series is described as follows: Inhibition of human amyloid beta (1 to 42) fibrillisation in cell-free solution at 100 uM measured every 10 mins up to 48 hrs by Thioflavin T based fluorescence assay.
Series [5] has the same target. The series is described as follows: Inhibition of human amyloid beta (1 to 42) assessed as reduction in fibrillisation AUC in cell-free solution at 100 uM measured every 10 mins for 48 hrs by Thioflavin T based fluorescence assay.
The target is the same in series [6]. The series is described as follows: Inhibition of human amyloid beta (1 to 42) assessed as neuroprotective activity at 2 uM of amyloid beta (1 to 42)-induced toxicity in rat PC12 cells by measuring reduction in cell viability at 100 uM incubated 15 mins prior to amyloid beta (1 to 42) addition measured after 48 hrs by MTT assay. Type of series: cell-based.
Series [7] shares this target. The series is described as follows: Inhibition of human amyloid beta (1 to 42) aggregation assessed as reduction in fibril formation at 100 uM after 48 hrs by transmission electron microscopic analysis.
The target is the same in series [8]. The series is described as follows: Inhibition of human amyloid beta (1 to 42) aggregation at 100 uM after 48 hrs by transmission electron microscopic analysis.
Series [9] shares this target. The series is described as follows: Inhibition of human amyloid beta (1 to 42) assessed as neuroprotective activity at 2 uM of amyloid beta (1 to 42)-induced toxicity in rat PC12 cells by measuring reduction in cell viability incubated 15 mins prior to amyloid beta (1 to 42) addition measured after 48 hrs by MTT assay. Type of series: cell-based.
Series [10] has the same target. The series is described as follows: Inhibition of human amyloid beta (1 to 42) assessed as neuroprotective activity up to 1 uM of amyloid beta (1 to 42)-induced toxicity in rat PC12 cells by measuring reduction in cell viability at 100 uM incubated 15 mins prior to amyloid beta (1 to 42) addition measured after 48 hrs by MTT assay. Type of series: cell-based.
Series [11] shares this target. The series is described as follows: Inhibition of human amyloid beta (1 to 42) fibrillisation in cell-free solution at 100 uM measured up to 16 hrs by Thioflavin T based fluorescence assay.
For series [12], the system named is PC-12. The series is described as follows: Cytotoxicity against rat PC12 cells assessed as reduction in cell viability at 100 uM after 48 hrs in presence of 0.1 uM amyloid beta (1 to 42) by MTT assay. The class given is cell-based. The settings on record: pc-12, 48 h.
For series [13], the target named is Amyloid-beta precursor protein (Homo sapiens) (UniProt P05067). The series is described as follows: Inhibition of human amyloid beta (1 to 42) aggregation assessed as increase in preponderance of fibril meshwork formation at 100 uM after 48 hrs by transmission electron microscopic analysis.
Sequence of Amyloid-beta precursor protein (Homo sapiens) (P05067 whole entry): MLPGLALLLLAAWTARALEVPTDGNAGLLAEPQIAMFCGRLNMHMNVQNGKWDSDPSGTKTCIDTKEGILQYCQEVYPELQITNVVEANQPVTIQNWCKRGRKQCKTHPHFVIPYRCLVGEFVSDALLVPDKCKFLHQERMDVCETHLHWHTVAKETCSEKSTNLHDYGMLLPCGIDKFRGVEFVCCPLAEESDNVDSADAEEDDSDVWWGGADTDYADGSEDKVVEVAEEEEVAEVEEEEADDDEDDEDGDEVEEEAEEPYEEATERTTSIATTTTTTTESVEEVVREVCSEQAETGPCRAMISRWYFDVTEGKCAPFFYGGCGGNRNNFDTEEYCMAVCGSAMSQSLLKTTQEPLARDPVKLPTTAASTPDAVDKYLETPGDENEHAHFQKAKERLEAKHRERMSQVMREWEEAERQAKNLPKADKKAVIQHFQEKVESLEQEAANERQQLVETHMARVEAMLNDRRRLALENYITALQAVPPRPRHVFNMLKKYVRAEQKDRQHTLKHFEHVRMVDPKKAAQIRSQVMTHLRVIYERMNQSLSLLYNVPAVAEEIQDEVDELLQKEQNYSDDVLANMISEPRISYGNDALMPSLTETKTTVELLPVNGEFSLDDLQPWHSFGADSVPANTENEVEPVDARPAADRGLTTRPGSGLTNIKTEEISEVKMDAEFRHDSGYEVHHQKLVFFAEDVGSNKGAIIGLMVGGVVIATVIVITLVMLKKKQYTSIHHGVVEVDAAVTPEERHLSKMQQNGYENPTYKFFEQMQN
Series [14] relates to PC-12. The series is described as follows: Cytotoxicity against rat PC12 cells assessed as reduction in cell viability at 100 uM after 48 hrs in presence of up to 2 uM amyloid beta (1 to 42) by MTT assay. The settings on record: pc-12, 48 h. The class given is cell-based.
For series [15], the target named is Amyloid-beta precursor protein (Homo sapiens) (UniProt P05067). The series is described as follows: Inhibition of human amyloid beta (1 to 42) assessed as neuroprotective activity against amyloid beta (1 to 42)-induced toxicity in rat PC12 cells by measuring reduction in cell viability at 50 to 100 uM incubated 15 mins prior to amyloid beta (1 to 42) addition measured after 48 hrs by MTT assay. The class given is cell-based.

Series [16] deals with PC-12. The series is described as follows: Cytotoxicity against rat PC12 cells assessed as reduction in cell viability at 100 uM after 48 hrs by MTT assay. Type of series: cell-based. As to conditions: pc-12, 48 h.
In series [17] the target is Amyloid-beta precursor protein (Homo sapiens) (UniProt P05067). The series is described as follows: Inhibition of human amyloid beta (1 to 42) assessed as neuroprotective activity against amyloid beta (1 to 42)-induced toxicity in rat PC12 cells by measuring reduction in cell viability at 10 uM incubated 15 mins prior to amyloid beta (1 to 42) addition measured after 48 hrs by MTT assay. The class given is cell-based.

We go through 5 compounds from ChEMBL document CHEMBL4052649, “Structure-activity relationships for flavone interactions with amyloid β reveal a novel anti-aggregatory and neuroprotective effect of 2',3',4'-trihydroxyflavone (2-D08)” (Bioorg Med Chem, 2017).

Active and inactive are the calls of the source. The rule behind the calls is not given here.

Turning to `COc1c(-c2ccc(O)c(O)c2)oc2c(O)c(O)ccc2c1=O`, the inhibition result in series [1], in [2], in [3], in series [4] and in series [5] was “Active” throughout. Also, the inhibition result in series [6] is “inactive”.

In the case of `O=c1cc(-c2ccc(O)c(O)c2O)oc2ccccc12`, the inhibition entry in series [1], in series [7], in series [8], in series [4] and in [5] was “Active” in each case. For the same compound, the inhibition entry in series [9] is “Dose-dependent effect”.

Turning to `COc1cc(-c2cc(=O)c3c(O)c(OC)c(O)cc3o2)ccc1O` [JACEOSIDINE], the inhibition result in series [10] and in series [5] was “inactive” throughout. Besides, the inhibition entry in [11] and in series [8] was “Active” throughout. Moreover, the Activity result in the series on PC-12 [12] was “Toxic”.

Regarding `COc1ccc(-c2cc(=O)c3c(OC)c(OC)c(OC)c(OC)c3o2)cc1OC` [NOBILETIN], the inhibition entry in series [10], in series [11], in series [5] and in series [13] was “inactive” each time. In addition, in the series on PC-12 [12], the Activity result is “Toxic”.

Take `O=c1c(O)c(-c2ccc(O)c(O)c2)oc2cc(O)cc(O)c12` [QUERCETIN]: the inhibition result in series [1] and in [15] was “inactive” throughout. The results for the Activity result in the series with PC-12 [14] and in the series with PC-12 [16] were “Non-Toxic” and 25%, respectively. In addition, the inhibition result in series [2], in series [4], in [5] and in [17] was “Active” throughout.
